Data on two compounds can be found in patent US6403650B1, “Treatment of pulmonary hypertension” (Knoll Pharmaceutical Company, priority 1999, dated 2002).

Assay [1] concerns the target [3H]Noradenaline reuptake. Kind of assay: in vitro [3H]noradrenaline reuptake inhibition in rat brain tissue. As to conditions: means of ≧3 separate determinations. In kind it is biochemical.
The next assay addresses [3H]Dopamine reuptake. Description: in vitro [3H]dopamine reuptake inhibition in rat brain tissue. Format: biochemical. As to conditions: means of ≧3 separate determinations.

The structures appear in SMILES notation.

A word on the Ki: it is the equilibrium dissociation constant of an inhibitor or competing ligand from its target. Read a low Ki as a stronger hold on the target. Consider `COc1ccc(C(CN(C)C)C2(O)CCCCC2)cc1` (stereo not shown) [Venlafaxine], for which the Ki in assay [1] came out at 196 nM; in assay [3H]Dopamine reuptake it was 2590 nM.
The like results for `CC(NC(C)(C)C)C(=O)c1cccc(Cl)c1` (stereo not shown) [Bupropion] were, in that order, 2590 nM and 409 nM.
